These results are taken from patent US20220073536A1 (Rigel Pharmaceuticals, Inc., priority 2003, published 2022).

Read-outs that look alike come from different tables or passages of the source.

The subject of this test is cultured human mast cells (CHMC). Nature of the test: CHMC low cell density IgE activation: tryptase assay. The class given is cell-based. Particulars: IgE activation. In short, it runs like this: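 Fluorogenic readout of tryptase released into the supernatant (30 min substrate incubation, room temperature) measures degranulation. Cells were plated at low density (1000–1500/well, varied by donor) and triggered with anti-IgE for 30 min at 37 °C.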

[1] abbreviates: low cell density CHMC, tryptase readout, 8 pt, read-out: LD Tryptase, CHMC, IgE, 8 pt.
Setting [2] is: Homo sapiens, Mast cell, low cell density CHMC, tryptase, 3 pt, read-out: LD Tryptase, CHMC, IgE, 3 pt.
The mark [3] stands for this setting: Homo sapiens, Mast cell, low cell density CHMC, tryptase release, 8 pt, read-out: LD Tryptase, CHMC, IgE, 8 pt.
The mark [4] stands for this setting: Homo sapiens, Mast cell, low cell density, 3 pt, read-out: LD Tryptase, CHMC, IgE, 3 pt.
Where [5] appears, read: Homo sapiens, Mast cell, low cell density CHMC, tryptase, 8 pt, read-out: LD Tryptase, CHMC, IgE, 8 pt.
The mark [6] stands for this setting: Homo sapiens, Mast cell, low cell density, 8 pt, read-out: LD Tryptase, CHMC, IgE, 8 pt.
[7] abbreviates: low cell density CHMC, tryptase release, 8 pt, read-out: LD Tryptase, CHMC, IgE, 8 pt.
The mark [8] stands for this setting: low cell density CHMC, tryptase release, 3 point, read-out: LD Tryptase, CHMC, IgE, 3 pt.
Setting [9] is: low cell density CHMC, tryptase, 3 pt, read-out: LD Tryptase, CHMC, IgE, 3 pt.
Where [10] appears, read: low cell density CHMC, tryptase, 8 pt, read-out: LD Tryptase, CHMC, IgE, 8 pt.

As for `CC1(C)Oc2ccc(Nc3nc(Nc4ccc(-c5ncco5)cc4)ncc3F)nc2NC1=O` [Compound 1035, N4-(2,2-Dimethyl-3-oxo-4H-5-pyrid[1,4]oxazin-6-yl)-5-fluoro-N2-[4-(oxazol-2-yl)phenyl]-2,4-pyrimidinediamine], the IC50 under setting [1] was over 10 µM.

For the compound `CN1CCN(c2ccc(Nc3ncc(F)c(NC4CNC4)n3)cc2)CC1` [Compound 1131], the IC50 under setting [2] was over 10 µM. As for `COc1ccc(Nc2nc(Nc3ccc4[nH]c(CN5CCOCC5)nc4c3)ncc2F)cc1Cl` [Compound 960, N4-(3-Chloro-4-methoxyphenyl)-5-fluoro-N2-[2-(4-morpholinomethyl)-1H-benzimidazol-5-yl]-2,4-pyrimidinediamine], for the setting “low cell density, 8 pt, read-out: LD Tryptase, CHMC, IgE, 8 pt”, the IC50 is under 10 µM. `COc1ccc(Nc2ncc(F)c(Nc3ccc4c(c3)NC(=O)CS4(=O)=O)n2)cc1Cl` [Compound 304]: the IC50 under setting [3] was under 10 µM. As to `Cc1noc(C)c1Nc1nc(Nc2cccc(-c3ncco3)c2)ncc1F` [Compound 534, N4-(3,5-Dimethylisoxazol-4-yl)-5-fluoro-N2-[3-(oxazol-2-yl)phenyl]-2,4-pyrimidinediamine], the IC50 under setting [4] is under 10 µM.

In the case of `CCCCn1ncc2ccc(Nc3ncc(F)c(Nc4ccc5c(c4)NC(=O)C(C)(C)O5)n3)cc21` [Compound 716, N2-(1-n-Butylindazol-6-yl)-N4-(2,2-dimethyl-3-oxo-4H-benz[1,4]oxazin-6-yl)-5-fluoro-2,4-pyrimidinediamine], under setting [5], the IC50 is under 10 µM. `CN1CCN(c2ccc(Nc3ncc(F)c(NC4CC(C)(C)N(C)C(C)(C)C4)n3)cc2C(F)(F)F)CC1` [Compound 1224]: the IC50 under setting [2] was over 10 µM. With `COc1ccc(Nc2nc(Nc3ccc4c(c3)nc(C(F)(F)F)n4CCCO)ncc2F)cc1Cl` [Compound 938], the IC50 under setting [4] was under 10 µM. Consider `Fc1cnc(Nc2ccc3c(cnn3CC3CCCCC3)c2)nc1Nc1ccc(Cl)c(Cl)c1` [Compound 719, N2-[1-(Cyclohexylmethyl)indazol-5-yl]-N4-(3,4-dichlorophenyl)-5-fluoro-2,4-pyrimidinediamine], for which the IC50 under setting [2] is under 10 µM. As to `CNC(=O)c1cc2cccc(Nc3ncc(F)c(Nc4cc(C)cc(C)c4)n3)c2[nH]1` [Compound 557, N4-(3,5-Dimethylphenyl)-5-fluoro-N2-[2-(N-methylamino)carbonylindol-7-yl]-2,4-pyrimidinediamine], the IC50 under setting [6] is over 10 µM. For the compound `C[C@H]1Oc2ccc(Nc3nc(Nc4cc5c6c(c4)c(CCO)cn6CCO5)ncc3F)cc2NC1=O` [Compound 205, (R)-5-Fluoro-N2-[6-(2-hydroxyethyl)-2,3-dihydropyrrolo[1,2,3-d,e]benzoxazin-8-yl]-N4-(2-methyl-3-oxo-2H,4H-benz[1,4]oxazin-6-yl)-2,4-pyrimidinediamine], under setting [7], the IC50 was under 10 µM. For the compound `COC(=O)c1cc2cc(Nc3ncc(F)c(Nc4cc(OC)cc(OC)c4)n3)ccc2o1` [Compound 381], the IC50 was under 10 µM under setting [2] and under 10 µM under setting [5]. With `Cc1cc(N2CCN(C)CC2)ncc1Nc1ncc(F)c(NC2CC(C)(C)N(C)C(C)(C)C2)n1` [Compound 1249], under setting [2], the IC50 was over 10 µM. For `CCCn1cc2ccc(Nc3ncc(F)c(Nc4ccc5c(c4)NC(=O)C(C)(C)O5)n3)cc2n1` [Compound 764, N4-(2,2-Dimethyl-3-oxo-4H-benz[1,4]oxazin-6-yl)-5-fluoro-N2-(2-n-propylindazol-6-yl)-2,4-pyrimidinediamine], the IC50 by setting is: under setting [2], under 10 µM; under setting [5], under 10 µM.

With `COc1ccc(Nc2nc(Nc3ccc4c(cnn4CCCNC(=O)C4CC4)c3)ncc2F)nc1Cl` [Compound 891], the IC50 under setting [4] is under 10 µM. For `Cc1nc2cc(Nc3ncc(F)c(Nc4ccc5c(c4)NC(=O)[C@H](C)O5)n3)ccc2n1C` [Compound 897], the IC50 runs as follows: under setting [4], under 10 µM; under setting [6], under 10 µM. Take `Fc1cnc(Nc2cc(Cl)cc(Cl)c2)nc1Nc1ccc2c(c1)OCCO2` [Compound 354]: the IC50 under setting [5] is under 10 µM.

In the case of `C[C@@H]1Oc2ccc(Nc3nc(N)nc(-c4ccc5c(c4)nc(C(F)(F)F)n5CCO)c3F)cc2NC1=O` [Compound 919], the IC50 by setting is: under setting [4], under 10 µM; under setting [6], under 10 µM. For the compound `COC(=O)c1ccc(Nc2ncc(F)c(Nc3ccc(Cl)c(Cl)c3)n2)cc1` [Compound 1261], the IC50 under setting [2] was over 10 µM. Take `O=C1COc2ccc(Nc3nc(Nc4cccc(N5CCOCC5)c4)ncc3F)nc2N1` [Compound 1073, 5-Fluoro-N2-(3-morpholinophenyl)-N4-(3-oxo-2H,4H-5-pyrid[1,4]oxazin-6-yl)-2,4-pyrimidinediamine]: the IC50 under setting [1] is under 10 µM. As for `CNC(=O)COc1c(C)cc(Nc2ncc(F)c(Nc3ccc4c(c3)OCCO4)n2)cc1C` [Compound 572, N2-[3,5-dimethyl-4-(N-methylamino)carbonylmethyleneoxyphenyl]-N4-(3,4-ethylenedioxyphenyl)-5-fluoro-2,4-pyrimidinediamine], the IC50 is under 10 µM under setting [8] and under 10 µM (low cell density CHMC, tryptase release, 8 point, read-out: LD Tryptase, CHMC, IgE, 8 pt).

As for `CNC(=O)COc1cccc(Nc2ncc(F)c(Nc3ccc4c(c3)NC(=O)C(C)S4(=O)=O)n2)c1` (racemic) [Compound 285, racemic-5-Fluoro-N2-[3-(N-methylamino)carbonylmethyleneoxyphenyl]-N4-(2-methyl-1,1,3-trioxo-2H,4H-benzo[1,4]thiazin-6-yl)-2,4-pyrimidinediamine], under setting [7], the IC50 was under 10 µM.

In the case of “N4-[3,4- (Difluoromethylenedioxy)phenyl]-5-fluoro-N2-[2- (N-methylamino)carbonylindol-7-yl]-2,4-pyrimidinediamine [Compound 570]”, under setting [8], the IC50 is under 10 µM. Turning to `CCOC(=O)N1CCN(c2ccc(Nc3ncc(F)c(Nc4ccc5c(n4)NCCO5)n3)cc2)CC1` [Compound 1135, N4-(3,4-Dihydro-2H,4H-5-pyrid[1,4]oxazin-6-yl)-N2-[4-(4-ethoxycarbonylpiperazino)phenyl]-5-fluoro-2,4-pyrimidinediamine], the IC50 runs as follows: under setting [9], under 10 µM; under setting [10], under 10 µM. As for `CC1(C)C(=O)Nc2cc(Nc3nc(Nc4cccc(O)c4)ncc3F)ccc2S1(=O)=O` [Compound 283, racemic-N4-(2,2-Dimethyl-1,1,3-trioxo-4H-benzo[1,4]thiazin-6-yl)-5-fluoro-N2-[3-hydoxyphenyl]-2,4-pyrimidinediamine], under setting [7], the IC50 is under 10 µM. “5-Fluoro-N2-[2- (N-methylamino)carbonylindol-7-yl]-N4-[3,4-(tetrafluoroethylenedioxy)phenyl]-2,4-pyrimidinediamine [Compound 365]”: the IC50 under setting [9] is under 10 µM.

For the compound `COc1cc(Nc2nc(Nc3ccc4c(cnn4C(C)C)c3)ncc2F)ccc1F` [Compound 782, 5-Fluoro-N4-(4-fluoro-3-methoxyphenyl)-N2-[1-(1-methylethyl)indazol-5-yl]-2,4-pyrimidinediamine], under setting [3], the IC50 is under 10 µM.

With `CCc1ccc(S(=O)(=O)O)cc1.COc1cc(Nc2ncc(F)c(Nc3ccc4c(n3)NC(=O)C(C)(C)O4)n2)cc(OC)c1OC` [Compound 679, N4-(2,2-Dimethyl-3-oxo-4H-5-pyrid[1,4]oxazin-6-yl)-5-fluoro-N2-(3,4,5-trimethoxyphenyl)-2,4-pyrimidinediamine p-Ethylbenzenesulfonic Acid Salt], the IC50 under setting [9] is under 10 µM and the IC50 under setting [10] is under 10 µM.

In the case of `Cc1nc2cc(Nc3ncc(F)c(Nc4ccc5c(c4)NC(=O)C(C)(C)O5)n3)ccc2n1CCCO` [Compound 949], the IC50 under setting [6] is under 10 µM.
